Source: PubChem BioAssay AID1117361 (Southern Research Institute, 2015)

What follows are compounds tested against Protein Tat (Human immunodeficiency virus type 1 group M subtype B (isolate HXB2)) (UniProt P04608) (assay: inhibitors of Tat binding to TAR RNA, dose response, counter-screen for Vif-APOBEC3G degradation inhibitor project, biochemical, fluorescence polarization, FAM-labeled TAR RNA (AID 1117361)).
Sequence of Protein Tat (Human immunodeficiency virus type 1 group M subtype B (isolate HXB2)) (P04608 whole entry, looked up): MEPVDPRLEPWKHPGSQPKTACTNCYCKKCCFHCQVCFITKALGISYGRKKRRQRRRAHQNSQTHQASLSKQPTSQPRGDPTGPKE

Oc1cc2c(cc1O)[C@H]1c3ccc(O)c(O)c3OC[C@@]1(O)C2 and O=S(=O)(O)c1cc(Cl)cc(N=Nc2ccc(O)cc2O)c1O are within 1.5-fold of each other in IC50: 15.7 µM for the first, 22.5 µM for the second.

First: CCN(CC(=O)Nc1c(F)cccc1F)C(=O)CSC(=S)N1CCCC1
Second: CCOC(=O)C1CCCN(C(=O)c2cc(-c3ccco3)nc3ccccc23)C1 (stereo not given)
The IC50 of the first is 2.7-fold higher: 75.6 µM for the first, 27.8 µM for the second. The second is the more potent here.

First: CO[C@H]1C=CO[C@@]2(C)Oc3c(C)c(O)c4c(O)c(c(C=NN5CCN(C)CC5)c(O)c4c3C2=O)NC(=O)C(C)=CC=C[C@H](C)[C@H](O)[C@@H](C)[C@@H](O)[C@@H](C)[C@H](OC(C)=O)[C@@H]1C
Second: CN(C)[C@@H]1C(=O)C(C(=O)NCN2CCCC2)=C(O)[C@@]2(O)C(=O)C3=C(O)c4c(O)cccc4[C@@](C)(O)C3CC12 (stereo not given in full)
The IC50 of the first is 4.6-fold higher: 11.2 µM for the first, 2.46 µM for the second.

Going from O=C1CCCC(O)=C1N=Nc1cccc(C(=O)O)c1 to CC1CCC/C(=C\Nc2ccc(C(=O)O)c(O)c2)C1=O (stereo not given), the IC50 falls from 13.7 µM to 5.37 µM (2.6-fold).

Compared with CC1=CC2(O)OCCN(CCO)C2=CC1=O (stereo not given), CCCc1cc(=O)oc2cc(C)c(CN3CCCC3)c(O)c12 is 2-fold lower in IC50: 34.5 µM for the first, 16.9 µM for the second. The second is the more potent here.

O=C1NC(=O)N(Cc2ccco2)C(=O)/C1=C/C=C/c1ccco1 and CC(C(=O)O)N1C(=O)/C(=C/C=C/c2ccco2)SC1=S (stereo not given) are within 1.5-fold of each other in IC50: 1.95 µM for the first, 1.54 µM for the second.

CC(=O)c1ccc(NC(=O)CSc2nnc(-c3ccco3)c(-c3ccco3)n2)cc1 and COc1ccc(NC(=O)CC2Nc3cccc4cccc(c34)NC2=O)cc1 (stereo not given) are within 1.5-fold of each other in IC50: 6.61 µM for the first, 7.03 µM for the second.

Going from O=C(O)c1[nH]c2ccc(Cl)cc2c1CC(=O)N1CCN(C(=O)c2ccco2)CC1 to O=C(O)CSc1c2c(nc3cc(C(=O)N4CCOCC4)ccc13)CCCC2, the IC50 falls from 69.5 µM to 12.2 µM (5.7-fold).

Going from C=CCn1c(SCC(=O)NCCCC)nc2scc(-c3ccco3)c2c1=O to Cc1cccn2c(=O)c3cc(C(=O)NCc4ccco4)c(=N)n(CCc4ccccc4)c3nc12, the IC50 falls from 17.8 µM to 11.8 µM (1.5-fold). The second is the more potent here.

First: O=C1NC(c2cccc(Br)c2)=N/C1=C\c1ccco1
Second: S=c1[nH]nc(-c2cccnc2)n1/N=C/C=C/c1ccco1
The IC50 of the first is 1.7-fold higher: 9.2 µM for the first, 5.3 µM for the second. The second is the more potent here.

Compared with S=c1[nH]nc(COc2ccc3c(c2)OCO3)n1-c1ccccc1, O=C1NC(=O)N(c2ccccc2)C(=O)/C1=C\c1ccc([N+](=O)[O-])s1 is 10-fold higher in IC50: 1.03 µM for the first, 10.7 µM for the second.

C=C(C)C(=O)Nc1cccc(C2=NOC3(C2)C[C@@H](C(N)=O)N(C(=O)/C=C/CC)C3)c1 (stereo not given in full) and O=C(COC(=O)/C=C/c1ccco1)Nc1ncc(C(F)(F)F)cc1Cl are within 1.5-fold of each other in IC50: 24.5 µM for the first, 20.2 µM for the second.

First: COc1cc(NCCCCCCN)c2ncccc2c1OC
Second: COc1ccc2c3c(cccc13)N(C)N=C2C
The IC50 of the first is 5.1-fold higher: 56.7 µM for the first, 11.1 µM for the second. The second is the more potent here.

Compared with Cc1ncc(CO)c(/C=N/NC(=O)c2cc(O)c(O)c(O)c2)c1O, CC(N=Cc1cccc(O)c1O)c1ccccc1 (stereo not given) is 4.6-fold lower in IC50: 32.1 µM for the first, 6.96 µM for the second.

O=[N+]([O-])c1cc2ccccc2c(O)c1O and O=[N+]([O-])c1ccccc1S(=O)(=O)NC1CCCC1 are within 1.5-fold of each other in IC50: 56.8 µM for the first, 45 µM for the second.

First: c1ccc2c(c1)CCCN2Cc1nnc2n1CCCCC2
Second: O=C(NCc1ccccc1Cl)c1csc2c1CCCCC2
The IC50 of the first is 6.3-fold lower: 4.29 µM for the first, 27.2 µM for the second.

First: Cc1cccc(-n2c(Cc3cc(=O)[nH]c(=O)[nH]3)nnc2SC(C)C)c1
Second: Cc1cc(-c2csc(NC(=O)c3ccc(C#N)cc3)n2)c(C)n1Cc1ccco1
The IC50 of the first is 1.7-fold higher: 28.2 µM for the first, 16.7 µM for the second. The second is the more potent here.

First: N#C/C(=C/c1ccc(Br)o1)C(N)=S
Second: N#CC(C#N)=Cc1cccn1-c1ccc(C(=O)O)cc1
The IC50 of the first is 2.1-fold lower: 16 µM for the first, 33.3 µM for the second.

Going from Oc1ccc(N=Cc2ccc(-c3cccs3)s2)cc1 to Oc1ccccc1/C=N/c1c(-c2ccco2)nc2ccccn12, the IC50 falls from 8.64 µM to 2.97 µM (2.9-fold). The second is the more potent here.

First: CCCNC1=C(C)C(=O)C2=C(C1=O)C(COC(N)=O)[C@]1(OC)C3NC3CN21 (stereo not given in full)
Second: CNC(=O)c1ccccc1NC(=O)c1ccc(C)c(S(=O)(=O)N2CCCCC2)c1
The IC50 of the first is 23-fold higher: 22.7 µM for the first, 0.969 µM for the second.

Going from O=C(N/N=C/C=C/c1ccco1)c1cccs1 to O=C(Cc1ccccc1)NC(Nc1ccccc1)C(Cl)(Cl)Cl (stereo not given), the IC50 rises from 11.6 µM to 87.8 µM (7.6-fold).

Going from CCCCCC#CCC#CCC#CCC#CCCCC(=O)O to Nc1cc(N)c(OCC(F)(F)F)cc1OCC(F)(F)F, the IC50 rises from 2.38 µM to 11.4 µM (4.8-fold). The first is the more potent here.

Work on COc1ccc(C2=CC(c3ccc(Cl)cc3)n3cnnc3N2)cc1OC (stereo not given) yielded an IC50 of 6.19 µM.
